Reference: patent publication US20120015923A1, “USE OF ANDROGRAPHOLIDE COMPOUNDS FOR TREATING INFLAMMATION AND AIRWAY DISORDERS” (NATIONAL UNIVERSITY OF SINGAPORE, priority 2009, published 2012)

Experiments:
[1] = test system: lung tissue eosinophilia, mucus secretion and mast cells; assay: Histologic analysis of lung tissue (H&E, PAS, toluidine-blue); assay type: in vivo, BALB/c mice; details: OVA-challenged mice; for lung tissue eosinophilia / eosinophil-rich leukocyte infiltration (H&E): vs DMSO control
Description: Lungs were fixed in 10% neutral formalin, paraffinized, cut into 6-μm sections, and stained with hematoxylin and eosin (H&E) for examining cell infiltration and with periodic acid-Schiff stain (PAS) for measuring mucus production. Quantitative analysis was performed blinded as described below. Mast cells were detected in lung tissue using toluidine-blue staining, and the number of mast cells was counted in paraffin sections. The percentage of degranulated mast cells in the lung was calculated by counting the number of cells with 10% of extrusion of granules.
For both H&E and PAS staining, bronchioles selected for analysis were of similar structure and sizes, with clear morphology presentations and minimum disruptions of the surrounding tissues that could be formed during sectioning. The scoring of inflammatory and globlet cells was performed in 2-4 preparations of each mouse and mean scores were calculated from 4-5 mice. Peribronchial cell counts were performed in a blind manner and scored as known in the art. A five-point scoring system (0-4) was adapted: 0, no cells; 1, a few cells; 2, a ring of cells one cell layer deep; 3, a ring of cells two to four cells deep; 4, a ring of cells more than four cells deep. Goblet cell hyperplasia in the airway epithelium was assessed blind and scored according to the percentage of PAS-positive mucus-producing cells. A five-point (0-4) grading system was as follows: 0, no goblet cells; 1, <25%; 2, 25-50%; 3, 50-75%; 4, >75%. Briefly, to determine the severity of inflammatory cell infiltration, peribronchial cell counts were performed blind based on a 5-point scoring system: 0, no cells; 1, a few cells; 2, a ring of cells 1 cell layer deep; 3, a ring of cells 2-4 cells deep; 4, a ring of cells of >4 cells deep. To determine the extent of mucus production, goblet cell hyperplasia in the airway epithelium was quantified blind using a 5-point grading system: 0, no goblet cells; 1, <25%; 2, 25-50%; 3, 50-75%; 4, >75%. Scoring of inflammatory cells and goblet cells was performed in at least 3 different fields for each lung section. Mean scores were obtained from 4 animals. *Significant difference from DMSO control, P<0.05.

OVA-induced AHR = assay: Airway hyper-responsiveness (AHR) to intravenous methacholine; assay type: in vivo, BALB/c mice; details: 1 mg/kg; for OVA-induced airway hyperresponsiveness (AHR) to methacholine: OVA-challenged mice
Description: Mice were anesthetized and tracheotomy was performed as described above. The internal jugular vein was cannulated and connected to a microsyringe for intravenous methacholine administration. Airway resistance (RI) and dynamic compliance (Cdyn) in response to increasing concentrations of mechacholine were recorded using a whole body plethysmograph chamber (Buxco, Sharon, Conn.) and ventilated mechanically by a ventilator via the tube that was inserted into the trachea at a tidal volume of 200 μl/breadth and a breathing rate of 150/min. Airflow and pressure changes were detected by respective transducers, recorded and analyzed by Biosystem XA software (Buxco, Sharon, Conn., USA). Results are expressed as a percentage of the respective basal values in response to phosphate buffered saline (PBS).

[2] = OVA-challenged, mechanically ventilated mice

Compound: C=C1CC[C@@H]2[C@](C)(CO)[C@H](O)CC[C@@]2(C)[C@@H]1C/C=C1/C(=O)OC[C@H]1O [Andrographolide]
- E-selectin [1]: inhibited
- VCAM-1 [1]: inhibited
- airway mucus production / mucus hypersecretion (PAS) ([1]; 1 mg/kg): attenuated
- lung tissue eosinophilia / eosinophil-rich leukocyte infiltration (H&E) ([1]; 1 mg/kg): attenuated
- OVA-induced airway hyperresponsiveness (AHR) to methacholine (OVA-induced AHR): blocked

Compound: C=C1CCC2C(C)(CO)C(O)CCC2(C)C1C=CC1=CCOC1=O (centres unmarked) [DDAG, 14-Deoxy-11,12-didehydroandrographolide]
- airway mucus production / mucus hypersecretion (PAS) ([1]; 1 mg/kg): significantly halted
- lung tissue eosinophilia / eosinophil-rich leukocyte infiltration (H&E) ([1]; 1 mg/kg): markedly diminished
- total degranulating mast cell counts in toluidine-blue staining lung section ([1]; 1 mg/kg, vs DMSO vehicle control): drastically decreased
- OVA-induced airway hyperresponsiveness (AHR) to methacholine (OVA-induced AHR): significantly inhibited
- dynamic compliance (Cdyn) in response to methacholine (OVA-induced AHR; [2]): restored
- lung resistance (RI) in response to methacholine (OVA-induced AHR; [2]): dramatically reduced
